Source: patent US12522576B2, “Polymorphs of D9-THC naphthoylester” (priority 2019, dated 2026)
In brackets after ≈: the same amount, converted by molar mass.

How the values were obtained:
[1] = D9 solubility in the liquors at isolation temperature; type: physicochemical; conditions: organic solvent or mixture, thermodynamic from solid
Experimental: At the end of each experiment, suspensions were equilibrated at the isolation temperature (25 or 5° C.) for at least 18 hours and the solids and liquors separated by centrifugation at the isolation temperature. The Exo/D9/D8 ratio (Exo-D9-THC-naphthoylester impurity/D9-THC-naphthoylester/D8-THC-naphthoylester) was determined in both the isolated solids and the liquors, from which the % Exo-depletion in the isolated solids was calculated. Several solids were also isolated at elevated temperatures to assess the impact of the isolation temperature on Exo-impurity depletion.
In addition, the solubility of D9 in the liquors was determined in most of the explored solvents and used to estimate the yield.

Gravimetric solubility = type: physicochemical; conditions: thermodynamic from solid
Experimental: Additional solids or solvents were added to visual solubility samples with vials less than 100 mg/mL to produce slurries at 20 and 50° C. for the subsequent equilibrium solubility assessment. The slurries were stirred at 20 and 50° C. overnight, filtered through 0.2 μm syringe filters and evaporated to dryness under reduced pressure at ambient temperature. Gravimetric solubility was calculated by dividing the dry solids residue mass (mg) by the solvent mass (g). The mg/g solubility values were then converted to mg/mL using solvent density.
The solubility of Group D acetone and DMF solvates were assessed in the corresponding solvents.

Structure (SMILES): CCCCCc1cc(OC(=O)c2ccc3ccccc3c2)c2c(c1)OC(C)(C)[C@@H]1CCC(C)=C[C@@H]21 [Form B, (6aR,10aR)-6a,7,8,10a-tetrahydro-6,6,9-trimethyl-3-pentyl-6H-dibenzo[b,d]pyran-1-yl ester]
- solubility ([1]; MEK/IPA (1:9), 25 °C, batch 5, MEK/IPA (1:9), seed G/H, heat T 55, isolation T 25, SP 15, 5.0 mL/g): 17.2 mg/mL (≈ 36.7 mM)
- solubility ([1]; MEK/MeOH (1:9), 25 °C, batch 5, MEK/MeOH (1:9), seed G/H, heat T 60, isolation T 25, SP 12, 10.0 mL/g): 4.5 mg/mL (≈ 9.6 mM)
- solubility ([1]; MEK/MeOH (3:7), 5 °C, batch 5, MEK/MeOH (3:7), seed G, heat T 25, isolation T 5, SP 11, 30.0 mL/g): 15.8 mg/mL (≈ 33.7 mM)
- solubility ([1]; MEK/MeOH (3:7), 25 °C, batch 5, MEK/MeOH (3:7), seed G, heat T 25, isolation T 25, SP 7, 30.0 mL/g): 16.8 mg/mL (≈ 35.8 mM)
- solubility ([1]; MeOH, 25 °C, batch 5, MeOH, seed E/G, heat T 50, isolation T 25, SP 3, 9.8 mL/g): 5 mg/mL (≈ 10.7 mM)
- solubility ([1]; Toluene/EtOH (5:95), 25 °C, batch 5, Toluene/EtOH (5:95), seed H, heat T 55, isolation T 25, SP 21, 12.0 mL/g): 10.3 mg/mL (≈ 22 mM)
- solubility ([1]; Toluene/MeOH (1:9), 5 °C, batch 5, Toluene/MeOH (1:9), seed G, heat T 40, isolation T 5, SP 10, 30.0 mL/g): 8.7 mg/mL (≈ 18.6 mM)
- solubility ([1]; crystallisation liquors over suspended solid, 5 °C, batch 5, p-Xylene/MeOH (1:9), seed G, heat T 25, isolation T 5, SP 11, 40.0 mL/g): 9.2 mg/mL (≈ 19.6 mM)
- solubility ([1]; crystallisation liquors over suspended solid, 25 °C, batch 2, IPA/water (95:5), seed G/H, heat T 55, isolation T 25, SP 13, 10.0 mL/g): 5.6 mg/mL (≈ 11.9 mM)
- solubility ([1]; crystallisation liquors over suspended solid, 25 °C, batch 2, IPA/water (99:1), seed G/H, heat T 55, isolation T 25, SP 13, 10.0 mL/g): 7.3 mg/mL (≈ 15.6 mM)
- solubility ([1]; crystallisation liquors over suspended solid, 25 °C, batch 5, Anisole/MeOH (1:9), seed G, heat T 40, isolation T 25, SP 8, 30.0 mL/g): 9.6 mg/mL (≈ 20.5 mM)
- solubility ([1]; crystallisation liquors over suspended solid, 25 °C, batch 5, Cyclohexanone/IPA (1:9), seed G/H, heat T 45, isolation T 25, SP 15, 2.5 mL/g): 59.2 mg/mL (≈ 126 mM)
- solubility ([1]; crystallisation liquors over suspended solid, 25 °C, batch 5, EtOAc/IPA (1:9), seed G/H, heat T 55, isolation T 25, SP 15, 7.4 mL/g): 15.1 mg/mL (≈ 32.2 mM)
- solubility ([1]; crystallisation liquors over suspended solid, 25 °C, batch 5, EtOAc/MeOH (1:3), seed G, heat T 40, isolation T 25, SP 8, 30.0 mL/g): 11.3 mg/mL (≈ 24.1 mM)
- solubility ([1]; crystallisation liquors over suspended solid, 25 °C, batch 5, EtOH, seed E/G, heat T 50, isolation T 25, SP 3, 9.6 mL/g): 6.9 mg/mL (≈ 14.7 mM)
- solubility ([1]; crystallisation liquors over suspended solid, 25 °C, batch 5, MEK/EtOH (1:9), seed G/H, heat T 55, isolation T 25, SP 15, 10.0 mL/g): 11.2 mg/mL (≈ 23.9 mM)
- solubility ([1]; crystallisation liquors over suspended solid, 25 °C, batch 5, Toluene/MeOH (1:9), seed G, heat T 40, isolation T 25, SP 8, 30.0 mL/g): 8.4 mg/mL (≈ 17.9 mM)
- solubility ([1]; crystallisation liquors over suspended solid, 25 °C, batch 5, Toluene/MeOH (3:7), seed G, heat T 40, isolation T 25, SP 3, 5.5 mL/g): 53.5 mg/mL (≈ 114 mM)
- solubility ([1]; crystallisation liquors over suspended solid, 25 °C, batch 5, n-BuOH, seed E/G, heat T 50, isolation T 25, SP 3, 9.8 mL/g): 14.8 mg/mL (≈ 31.6 mM)
- solubility ([1]; crystallisation liquors over suspended solid, 25 °C, batch 5, n-BuOH, seed G, heat T 40, isolation T 25, SP 8, 10.0 mL/g): 16.7 mg/mL (≈ 35.6 mM)
- solubility ([1]; liquors of the equilibrated crystallisation suspension, 25 °C, batch 2, IPA/water (95:5), seed G/H, heat T 55, isolation T 25, 10.0 mL/g, SP 13, Exp 43): 5.6 mg/mL (≈ 11.9 mM)
- solubility ([1]; liquors of the equilibrated crystallisation suspension, 25 °C, batch 2, IPA/water (99:1), seed G/H, heat T 55, isolation T 25, 10.0 mL/g, SP 13, Exp 45): 7.3 mg/mL (≈ 15.6 mM)
- solubility ([1]; liquors of the equilibrated crystallisation suspension, 25 °C, batch 5, Cyclohexanone/EtOH (1:9), seed G/H, heat T 55, isolation T 25, 5.0 mL/g, SP 16, Exp 32): 21.1 mg/mL (≈ 45 mM)
- solubility ([1]; liquors of the equilibrated crystallisation suspension, 25 °C, batch 5, Cyclohexanone/IPA (1:9), seed G/H, heat T 45, isolation T 25, 2.5 mL/g, SP 15, Exp 39): 59.2 mg/mL (≈ 126 mM)
- solubility ([1]; liquors of the equilibrated crystallisation suspension, 25 °C, batch 5, Cyclohexanone/MeOH (1:9), seed G/H, heat T 60, isolation T 25, 10.0 mL/g, SP 12, Exp 30): 7.6 mg/mL (≈ 16.2 mM)
- solubility ([1]; liquors of the equilibrated crystallisation suspension, 25 °C, batch 5, EtOAc/EtOH (1:9), seed H, heat T 55, isolation T 25, 10.0 mL/g, SP 21, Exp 28): 12 mg/mL (≈ 25.6 mM)
- solubility ([1]; liquors of the equilibrated crystallisation suspension, 25 °C, batch 5, EtOAc/IPA (1:9), seed G/H, heat T 55, isolation T 25, 7.4 mL/g, SP 15, Exp 35): 15.1 mg/mL (≈ 32.2 mM)
- solubility ([1]; liquors of the equilibrated crystallisation suspension, 25 °C, batch 5, IPA/water (95:5), seed G/H, heat T 60, isolation T 25, 10.0 mL/g, SP 12, Exp 29): 4.5 mg/mL (≈ 9.6 mM)
- solubility ([1]; liquors of the equilibrated crystallisation suspension, 25 °C, batch 5, IPA, seed G/H, heat T 50, isolation T 25, 10.0 mL/g, SP 14, Exp 31): 7.3 mg/mL (≈ 15.6 mM)
- solubility ([1]; liquors of the equilibrated crystallisation suspension, 25 °C, batch 5, MEK/EtOH (1:9), seed G/H, heat T 55, isolation T 25, 10.0 mL/g, SP 15, Exp 40): 11.2 mg/mL (≈ 23.9 mM)
- solubility ([1]; liquors of the equilibrated crystallisation suspension, 25 °C, batch 5, MEK/IPA (1:9), seed G/H, heat T 55, isolation T 25, 5.0 mL/g, SP 15, Exp 25): 17.2 mg/mL (≈ 36.7 mM)
- solubility ([1]; liquors of the equilibrated crystallisation suspension, 25 °C, batch 5, MEK/MeOH (1:9), seed G/H, heat T 60, isolation T 25, 10.0 mL/g, SP 12, Exp 27): 4.5 mg/mL (≈ 9.6 mM)
- solubility ([1]; liquors of the equilibrated crystallisation suspension, 25 °C, batch 5, Toluene/EtOH (5:95), seed H, heat T 55, isolation T 25, 12.0 mL/g, SP 21, Exp 33): 10.3 mg/mL (≈ 22 mM)
- solubility ([1]; n-BuOH/MeOH (1:3), 25 °C, batch 5, n-BuOH/MeOH (1:3), seed E/G, heat T 50, isolation T 25, SP 3, 9.4 mL/g): 5.6 mg/mL (≈ 11.9 mM)
- solubility ([1]; n-BuOH/MeOH (1:3), 25 °C, batch 5, n-BuOH/MeOH (1:3), seed G, heat T 60, isolation T 25, SP 9, 10.0 mL/g): 6 mg/mL (≈ 12.8 mM)
- solubility ([1]; p-Xylene/MeOH (1:9), 25 °C, batch 5, p-Xylene/MeOH (1:9), seed G, heat T 25, isolation T 25, SP 7, 40.0 mL/g): 9.8 mg/mL (≈ 20.9 mM)
- solubility (Gravimetric solubility; 20 °C, organic solvent or mixture, solvent Acetone/MeOH (1:3), RT, read-out: Gravimetric Solubility at RT): ~9 mg/mL (≈ 19.2 mM)
- solubility (Gravimetric solubility; 20 °C, organic solvent or mixture, solvent BuOH/MeOH (1:3), RT, read-out: Gravimetric Solubility at RT): ~6 mg/mL (≈ 12.8 mM)
- solubility (Gravimetric solubility; 20 °C, organic solvent or mixture, solvent EtOH, RT, read-out: Gravimetric Solubility at RT): ~7 mg/mL (≈ 14.9 mM)
- solubility (Gravimetric solubility; 20 °C, organic solvent or mixture, solvent Heptane, RT, read-out: Gravimetric Solubility at RT): ~33 mg/mL (≈ 70.4 mM)
- solubility (Gravimetric solubility; 20 °C, organic solvent or mixture, solvent IPA:water (9:1), RT, read-out: Gravimetric Solubility at RT): ~3 mg/mL (≈ 6.4 mM)
- solubility (Gravimetric solubility; 20 °C, organic solvent or mixture, solvent IPA, RT, read-out: Gravimetric Solubility at RT): ~7 mg/mL (≈ 14.9 mM)
- solubility (Gravimetric solubility; 20 °C, organic solvent or mixture, solvent MeCN, RT, read-out: Gravimetric Solubility at RT): ~14 mg/mL (≈ 29.9 mM)
- solubility (Gravimetric solubility; 20 °C, organic solvent or mixture, solvent MeOH, RT, read-out: Gravimetric Solubility at RT): ~3 mg/mL (≈ 6.4 mM)
- solubility (Gravimetric solubility; 20 °C, solvent Water, RT, read-out: Gravimetric Solubility at RT): < 1 mg/mL
- solubility (Gravimetric solubility; organic solvent or mixture, solvent Acetone/MeOH (1:3), 50° C., read-out: Gravimetric Solubility at 50° C.): ~41 mg/mL (≈ 87.5 mM)
- solubility (Gravimetric solubility; organic solvent or mixture, solvent BuOH/MeOH (1:3), 50° C., read-out: Gravimetric Solubility at 50° C.): ~24 mg/mL (≈ 51.2 mM)
- solubility (Gravimetric solubility; organic solvent or mixture, solvent EtOH, 50° C., read-out: Gravimetric Solubility at 50° C.): ~29 mg/mL (≈ 61.9 mM)
- solubility (Gravimetric solubility; organic solvent or mixture, solvent IPA:water (9:1), 50° C., read-out: Gravimetric Solubility at 50° C.): ~18 mg/mL (≈ 38.4 mM)
- solubility (Gravimetric solubility; organic solvent or mixture, solvent IPA, 50° C., read-out: Gravimetric Solubility at 50° C.): ~45 mg/mL (≈ 96 mM)
- solubility (Gravimetric solubility; organic solvent or mixture, solvent MeCN, 50° C., read-out: Gravimetric Solubility at 50° C.): ~35 mg/mL (≈ 74.7 mM)
- solubility (Gravimetric solubility; organic solvent or mixture, solvent MeOH, 50° C., read-out: Gravimetric Solubility at 50° C.): ~12 mg/mL (≈ 25.6 mM)
- solubility (Gravimetric solubility; solvent Water, 50° C., read-out: Gravimetric Solubility at 50° C.): < 1 mg/mL
